In patent US20090130064A1, “DIFFERENTIATION OF STEM CELLS AND STABILIZATION OF PHENOTYPICAL PROPERTIES OF PRIMARY CELLS” (priority 2004, published 2009):

How the values were obtained:
rat BMSC = assay: Albumin ELISA, ALB secretion by rat BMSC-derived hepatocyte-like cells; format: cell-based
Method: Then, cells were cultivated in the presence of liver-specific (LSP) cytokines either as a cocktail [basal medium+10 ng/ml FGF-4 (fibroblast growth factor type 4), 20 ng/ml HGF (hepatic growth factor) (all from R&D), 1×ITS (insulin, transferrin, selenious acid) and 0.05 μM Dex (dexamethasone) (all from Sigma)] or separately (until day 3: basal medium+10 ng/ml FGF-4; from days 3 to 6: basal medium+20 ng/ml HGF; from day 6 on: basal medium+20 ng/ml HGF+1×ITS and 0.05 μM Dex). […] The culture media were changed every three days.
(§1) ALB concentrations secreted into the media were analysed by competitive enzyme-linked immunosorbent assay (ELISA) as described (Koebe et al. Int J Artif Organs 17: 95-106, 1994). The ALB levels were normalized with respect to the media used.

CYP 1A1 = CYP 1A1 activity (ethoxyresorufin conversion) in cultured rat hepatocytes; format: cell-based
Excerpt: (§2) Hepatocytes were isolated from male Sprague-Dawley rats by a two-step collagenase perfusion as described (De Smet et al. In ‘Methods in Molecular Biology, Vol. 107: Cytochrome P450 Protocols’, Philips IR and Shephard E A, eds., p.p 295-301, Humana Press, Totowa, 1998). Hepatocytes were cultivated in monolayer cultures with Willam's E Medium (WE) for 7 days. […] The maintenance of differentiation characteristics was studied after 2, 4, and 7 days (D2, D4, D7) of culture.
Phase I biotransformation was assessed by means of activity measurements of the microsomal cytochrome P450 (CYP) 1A1 and 2B1/2 iso-enzymes, using standard techniques known in the art (i.e., measuring conversion of ethoxyresorufin into hydroxyresorufin for CYP 1A1 and conversion of penthoxyresorufin to hydroxyresorufin for CYP 2B1/2) (Burke et al. Drug Metab Dispos 2:583-588, 1974). Microsomes were prepared from freshly isolated and hepatocytes cultured for 7 days according to Hales et al. (Biochem Pharmacol 26:555-556, 1977).

[1] = test system: glutathione S-transferase (GST); assay: Total cytosolic GST activity in cultured rat hepatocytes; format: cell-based; conditions: TSA starting at 4 hours; day 4 and 7
Excerpt: as §2
In order to investigate Phase II biotransformation, total cytosolic glutathione S-transferase (GST) activity and activities of individual GSTA, GSTP, and GSTM iso-enzymes were measured using standard techniques known in the art. (i.e., measuring conjugation of reduced glutathione with 1-chloro-2,4-dinitrobenzene for total GST; measuring conjugation of reduced glutathione with 7-chloro-4-nitrobenzo-2-oxa-1,3-diazole for GSTA activity; measuring conjugation of reduced glutathione with ethacrynic acid for GSTP activity; and measuring conjugation of reduced glutathione with 1,2-dichloro-4-nitrobenzene for GSTM activity).

[2] = test system: gap junctional intercellular communication; assay: GJIC scrape loading/dye transfer assay; format: cell-based, rat; conditions: 1 μM TSA; from D4 on
Method: (§3) In all conditions, the hepatocytes were cultivated as a monolayer configuration, and samples were taken at days 1, 4 and 7 (D1, D4, D7) of the cultivation time.
Scrape loading/dye transfer assay was performed as described by el-Fouly et al., 1987: 422-430. In brief, hepatocytes were scraped in the presence of 0.05% m/V Lucifer Yellow and incubated for 5 minutes at 37° C. The dye was then removed, cells were rinsed twice with PBS and fixed with 4% m/V paraformaldehyde. Evaluation was performed by fluorescence microscopy. The distance traveled by Lucifer Yellow from the scrape was used as a parameter to evaluate GJIC functionality.

rat hepatocytes = assay: Albumin ELISA in primary rat hepatocyte monolayers (conditions C1, C2); format: cell-based; conditions: 1 μM TSA; from D4 (C2) or D7 (C1) on
Method: as §3, §1

ribosomal S6 subunit = assay: Western blotting of S6 phosphorylation in synchronized hepatocytes; format: cell-based, rat; conditions: 50 μM
Method: Total cell extracts were prepared as described previously (Papeleu et al. J Hepatol 39: 374-382, 2003) and proteins (25 or 50 μg per lane) were separated electrophoretically by SDS-PAGE and electroblotted onto nitrocellulose membranes (Amersham Pharmacia Biotech, Buckinghamshire, UK). Equal sample loading was verified by immersion of the membranes in Ponceau S. Unspecific binding sites were blocked with 5% skim milk/Tris-buffered saline. Incubations with primary antibodies were performed overnight at 4° C. under gentle shaking. Proteins were detected using the ECL detection system (Amersham Pharmacia Biotech, Buckinghamshire, UK) according to the manufacturer's recommendations.
Early cell cycle events can be triggered by distinct signalling pathways, activated by EGF, namely: the MEK/ERK, the mTOR/p70S6k, and the Pak1 pathways. Eventually, they all converge on cyclin D1 and play thus an essential role in the regulation of this critical cell cycle protein. […] This was done by culturing the hepatocytes in the absence of EGF for 48 hours, consequently stimulating them with EGF and exposing them to 50 μM 4-Me2N-BAVAH for 0.5, 1 and 3 hours before harvesting. Shortly after stimulation of synchronized primary hepatocytes with EGF, a rapid and sustained phosphorylation of ERK1/2 was observed (FIG. 20A). […]

primary rat hepatocytes [3] = assay: Biotransformation in hepatocyte culture by HPLC with ESI-MS/UV; format: in vitro ADME; conditions: 50 μM; after 20 hours
Method: Cells were cultured for 24 hours in the presence of EGF, alone or in combination with 4-Me2N-BAVAH; culture media were renewed and the expression of p21 was subsequently analyzed at short time intervals (0.5, 1, 6 and 24 hours) (FIG. 18B). In untreated EGF-stimulated hepatocytes, cyclin D1 and p21 proteins were induced 0.5 hour after medium renewal. A maximum was reached 24 hours later, namely after 48 hours of culture. As expected, no cyclin D1 and p21 proteins could be detected in 4-Me2N-BAVAH-treated cells, not even after short exposure periods (FIG. 18B). In addition, we quantified the biotransformation rate of 4-Me2N-BAVAH using high-performance liquid chromatography (HPLC) combined with simultaneous electrospray ionization mass spectrometric (ESI-MS)/UV detection. […] These findings clearly indicate that 4-Me2N-BAVAH interferes with the mitogenic effects of EGF resulting in a failure to induce cyclin D1 and p21 expression.

primary rat hepatocytes [4] = assay: FACS analysis of cell cycle distribution of primary rat hepatocytes; format: cell-based; conditions: 50 μM + EGF; 72 hours
Method: Ploidy of hepatocyte nuclei was measured by FACS analysis. After hypotonic swelling of the cells with 0.1% sodium citrate, cellular DNA was stained with propidium iodide (50 μg/ml) and analyzed on a FACStar^Plus (Beckton Dickinson Biosciences, San José, Calif., USA).

| SMILES | cell death (rat BMSC; cocktail of LSP cytokines + TSA, from day 16 on) | increase of the ALB secretion from day 15 to 17 (rat BMSC; sequential cytokines + 1 μM TSA) | ALB secretion (rat BMSC; sequential cytokines + 1 μM TSA, from day 15 on) | activity of CYP 1A1 versus EtOH-treated controls (CYP 1A1; 1 μM TSA starting at 0 h or 4 h, day 4 and 7) | CYP 1A1/2 Activity (CYP 1A1; 7-day conventionally cultured adult rat hepatocytes, 1 μm TSA) | total GST activity versus EtOH treated controls [1] | GJIC activity [2] | albumin secretion (rat hepatocytes) | S6 phosphorylation (ribosomal S6 subunit) | metabolites detected in culture (primary rat hepatocytes [3]) | number of cells in G2/M (primary rat hepatocytes [4]) | proportion of cells in G0/G1 (primary rat hepatocytes [4]) |
| --- | --- | --- | --- | --- | --- | --- | --- | --- | --- | --- | --- | --- |
| CC(C=CC(=O)NO)=CC(C)C(=O)c1ccc(N(C)C)cc1 (stereo not drawn) [TSA] | cell death had occurred | 2.5 fold | significantly upregulated | significantly higher | 4.3 ± 0.6 pmol resorufin/minute mg microsomal protein | significantly higher | increases GJIC activity | improves albumin secretion |  |  |  |  |
| CN(C)c1ccc(C(=O)NCCCCC(=O)NO)cc1 [4-Me2N-BAVAH, 5-(4-dimethylaminobenzoyl)-aminovaleric acid hydroxamide] |  |  |  |  |  |  |  |  | only a minor increase | No metabolites of the compound could be detected | significantly lower | significantly higher proportion |
